Literature values, collected in patent US5496811A, “Submicron emulsions as ocular drug delivery vehicles” (priority 1992, dated 1996).

Structure (SMILES) | solubility in alkaline solutions (alkaline solutions) | stability in alkaline solutions (alkaline solutions) | solubility in water | solubility in oil (oil)
COc1ccc2c(c1)c(CC(=O)O)c(C)n2C(=O)c1ccc(Cl)cc1 [Indomethacin] | soluble in alkaline solutions | unstable under these conditions | practically insoluble in water | –
CCC1C(=O)OCC1Cc1cncn1C (centres unmarked) [Pilocarpine, 3-ethyldihydro-4-[(1-methyl-1H-imidazole-5-yl)methyl]-2(3H)-furanon] | – | – | soluble in water | sparingly soluble in oil
